The values that follow come from the NIST ThermoML archive (doi:10.1016/j.fluid.2008.11.013).

The nature of this series: activity coefficient (dimensionless); of the first substance listed, at infinite dilution; xn = mol fraction of the nth substance listed. As to conditions: Liquid, Chromatography, x1 = 0.

Structures are written as SMILES. ± gives the expanded uncertainty stated by the source.

In the case of `C=CCCCCCCCC` [1-decene] + CCCCCC[N+]1(C)CCCC1.O=S(=O)([N-]S(=O)(=O)C(F)(F)F)C(F)(F)F, the activity coefficient (303.16 K) stood at 18.8 ± 0.87, the activity coefficient (313.15 K) was 18 ± 0.83, the activity coefficient (323.15 K) came to 17.3 ± 0.8 and the activity coefficient (333.16 K) was 16.9 ± 0.78.

With `C=CCCCCC` [1-heptene] + CCCCCCCC[N+]1(C)CCCC1.O=S(=O)([N-]S(=O)(=O)C(F)(F)F)C(F)(F)F, the activity coefficient reads like this: (313.11 K) 4.37 ± 0.2; (323.14 K) 4.22 ± 0.19; (333.17 K) 4.1 ± 0.19; (343.21 K) 4.02 ± 0.18.

For the compound `C=CCCCCC` [1-heptene] + CCCCCC[N+]1(C)CCCC1.O=S(=O)([N-]S(=O)(=O)C(F)(F)F)C(F)(F)F, the activity coefficient by setting is: (303.14 K) 6.5 ± 0.3; (313.16 K) 6.31 ± 0.29; (323.37 K) 6.11 ± 0.28; (333.16 K) 6 ± 0.27.

`C=CCCC` [1-pentene] + CCCCCCCC[N+]1(C)CCCC1.O=S(=O)([N-]S(=O)(=O)C(F)(F)F)C(F)(F)F: the activity coefficient worked out at 2.5 ± 0.11 (303.14 K), 2.43 ± 0.11 (313.13 K), 2.33 ± 0.11 (323.11 K) and 2.25 ± 0.1 (343.11 K).

Take `C=CCCC` [1-pentene] + CCCCCC[N+]1(C)CCCC1.O=S(=O)([N-]S(=O)(=O)C(F)(F)F)C(F)(F)F: the activity coefficient is, setting by setting: (303.16 K) 3.4 ± 0.15; (313.17 K) 3.37 ± 0.15; (323.15 K) 3.33 ± 0.15; (333.15 K) 3.31 ± 0.15.

In the case of `CCCCCCCCCC` [decane] + CCCCCC[N+]1(C)CCCC1.O=S(=O)([N-]S(=O)(=O)C(F)(F)F)C(F)(F)F, the activity coefficient (303.13 K) is 28.1 ± 1.3; the activity coefficient (313.17 K) was 27 ± 1.2; the activity coefficient (323.16 K) was determined as 25.1 ± 1.2; the activity coefficient (333.16 K) is 24.3 ± 1.1; the activity coefficient (343.13 K) is 23 ± 1.1.

Take `CCCCCCC` [heptane] + CCCCCCCC[N+]1(C)CCCC1.O=S(=O)([N-]S(=O)(=O)C(F)(F)F)C(F)(F)F: the activity coefficient stood at 6.9 ± 0.32 (303.1 K), 6.73 ± 0.31 (313.15 K), 6.54 ± 0.3 (323.09 K) and 6.36 ± 0.29 (333.13 K).

For `CCCCCCC` [heptane] + CCCCCC[N+]1(C)CCCC1.O=S(=O)([N-]S(=O)(=O)C(F)(F)F)C(F)(F)F, the activity coefficient came out at 11.4 ± 0.52 (303.16 K), 10.8 ± 0.49 (313.16 K), 10.3 ± 0.47 (323.15 K) and 9.89 ± 0.45 (333.12 K).

Take `C=CCCCC` [hex-1-ene] + CCCCCCCC[N+]1(C)CCCC1.O=S(=O)([N-]S(=O)(=O)C(F)(F)F)C(F)(F)F: the activity coefficient by setting is: (303.14 K) 3.11 ± 0.14; (313.13 K) 3.29 ± 0.15; (323.11 K) 3.22 ± 0.15; (343.11 K) 3.15 ± 0.14.

In the case of `C=CCCCC` [hex-1-ene] + CCCCCC[N+]1(C)CCCC1.O=S(=O)([N-]S(=O)(=O)C(F)(F)F)C(F)(F)F, the activity coefficient (303.16 K) was 4.77 ± 0.22, the activity coefficient (313.17 K) was 4.63 ± 0.21, the activity coefficient (323.15 K) was 4.55 ± 0.21 and the activity coefficient (333.15 K) turned out to be 4.45 ± 0.2.

`CCCCCC` [hexane] + CCCCCCCC[N+]1(C)CCCC1.O=S(=O)([N-]S(=O)(=O)C(F)(F)F)C(F)(F)F: the activity coefficient reads like this: (303.16 K) 5.24 ± 0.24; (313.13 K) 5.05 ± 0.23; (323.17 K) 4.9 ± 0.22; (333.19 K) 4.8 ± 0.22.

For the compound `CCCCCC` [hexane] + CCCCCC[N+]1(C)CCCC1.O=S(=O)([N-]S(=O)(=O)C(F)(F)F)C(F)(F)F, the activity coefficient (303.15 K) was 8.4 ± 0.39, the activity coefficient (313.19 K) worked out at 7.85 ± 0.36, the activity coefficient (323.16 K) came out at 7.21 ± 0.33 and the activity coefficient (333.14 K) is 6.57 ± 0.3.

Turning to `CCCCCCCCC` [nonane] + CCCCCC[N+]1(C)CCCC1.O=S(=O)([N-]S(=O)(=O)C(F)(F)F)C(F)(F)F, the activity coefficient came to 21.4 ± 0.99 (303.13 K); 19.9 ± 0.92 (313.17 K); 18.8 ± 0.87 (323.16 K); 18.1 ± 0.84 (333.16 K); 17.1 ± 0.79 (343.13 K).
